Numbers after ± are expanded uncertainties.
What was measured:
[1] = xn = mol fraction of the nth substance listed; details: 100 kPa, Liquid, Falling or rolling sphere viscometry
[2] = refractive index (Na D-line) (dimensionless); xn = mol fraction of the nth substance listed; details: 100 kPa, Liquid, Standard Abbe refractometry

Nc1ccccc1 [aniline] + CCn1cc[n+](C)c1.F[B-](F)(F)F
Details | refractive index, 293.15 K | refractive index, 303.15 K | refractive index, 313.15 K | refractive index, 323.15 K | viscosity, 293.15 K [mPa·s] | viscosity, 303.15 K [mPa·s] | viscosity, 313.15 K [mPa·s] | viscosity, 323.15 K [mPa·s]
[1], x2 = 0 | – | – | – | – | 4.38 ± 0.26 | 3.24 ± 0.2 | 2.47 ± 0.15 | 1.95 ± 0.12
[1], x2 = 0.1008 | – | – | – | – | 6.84 ± 0.48 | 4.88 ± 0.35 | 3.66 ± 0.26 | 2.66 ± 0.19
[1], x2 = 0.2035 | – | – | – | – | 9.46 ± 0.64 | 6.99 ± 0.47 | 5.16 ± 0.35 | 3.89 ± 0.26
[1], x2 = 0.3059 | – | – | – | – | 12.58 ± 0.83 | 8.93 ± 0.58 | 6.81 ± 0.45 | 5.07 ± 0.33
[1], x2 = 0.4053 | – | – | – | – | 15.93 ± 1 | 11.33 ± 0.73 | 8.59 ± 0.55 | 6.51 ± 0.42
[1], x2 = 0.5073 | – | – | – | – | 20.31 ± 1.3 | 14.07 ± 0.9 | 10.48 ± 0.67 | 7.99 ± 0.51
[1], x2 = 0.6013 | – | – | – | – | 24.51 ± 1.6 | 17.1 ± 1.1 | 12.51 ± 0.79 | 9.51 ± 0.6
[1], x2 = 0.7046 | – | – | – | – | 28.93 ± 1.8 | 20.39 ± 1.3 | 14.91 ± 0.93 | 11.06 ± 0.69
[1], x2 = 0.8067 | – | – | – | – | 33.76 ± 2.1 | 23.93 ± 1.5 | 17.35 ± 1.1 | 12.99 ± 0.81
[1], x2 = 0.9059 | – | – | – | – | 39.55 ± 2.5 | 27.15 ± 1.7 | 19.68 ± 1.2 | 14.9 ± 0.92
[2], x2 = 0 | 1.58481 ± 0.001 | 1.58152 ± 0.001 | 1.57823 ± 0.001 | 1.57494 ± 0.001 | – | – | – | –
[2], x2 = 0.1008 | 1.56571 ± 0.0024 | 1.56202 ± 0.0024 | 1.55833 ± 0.0024 | 1.55464 ± 0.0024 | – | – | – | –
[2], x2 = 0.2035 | 1.54192 ± 0.0024 | 1.53814 ± 0.0024 | 1.53436 ± 0.0024 | 1.53058 ± 0.0025 | – | – | – | –
[2], x2 = 0.3059 | 1.52125 ± 0.0023 | 1.51691 ± 0.0023 | 1.51285 ± 0.0024 | 1.5078 ± 0.0024 | – | – | – | –
[2], x2 = 0.4053 | 1.50001 ± 0.0023 | 1.49592 ± 0.0023 | 1.49183 ± 0.0022 | 1.48774 ± 0.0022 | – | – | – | –
[2], x2 = 0.5073 | 1.47963 ± 0.0022 | 1.47616 ± 0.0022 | 1.47269 ± 0.0022 | 1.46922 ± 0.0021 | – | – | – | –
[2], x2 = 0.6013 | 1.46255 ± 0.0019 | 1.45885 ± 0.0019 | 1.45515 ± 0.0019 | 1.45245 ± 0.0019 | – | – | – | –
[2], x2 = 0.7046 | 1.44852 ± 0.0017 | 1.44449 ± 0.0017 | 1.44126 ± 0.0017 | 1.43823 ± 0.0017 | – | – | – | –
[2], x2 = 0.8067 | 1.43589 ± 0.0016 | 1.43188 ± 0.0016 | 1.42857 ± 0.0016 | 1.42556 ± 0.0016 | – | – | – | –
[2], x2 = 0.9059 | 1.42458 ± 0.0015 | 1.42066 ± 0.0015 | 1.41748 ± 0.0015 | 1.41454 ± 0.0015 | – | – | – | –
